The values below come from article PMC6227840 (Open Medicine, 2018).

Like-named read-outs stand apart in the source and are kept apart here.

Data set [1] in a line: Population pharmacokinetic. The conditions noted are these: normal renal function.
For data set [2] the following is noted: cited from earlier work.
For data set [3] the following is noted: cited from earlier work. The source holds these as a separate data set.

Consider `CN[C@H](CC(C)C)C(=O)N[C@H]1C(=O)N[C@@H](CC(N)=O)C(=O)N[C@H]2C(=O)N[C@H]3C(=O)N[C@H](C(=O)N[C@H](C(=O)O)c4cc(O)cc(O)c4-c4cc3ccc4O)[C@H](O)c3ccc(c(Cl)c3)Oc3cc2cc(c3O[C@@H]2O[C@H](CO)[C@@H](O)[C@H](O)[C@H]2O[C@H]2C[C@](C)(N)[C@H](O)[C@H](C)O2)Oc2ccc(cc2Cl)[C@H]1O` [vancomycin, Vancomycin], for which the “central volume of distribution” value in data set [1] (base model, n = 32) is given as 7.12 L and the “central volume of distribution” value (base model, impaired renal function, n = 78) is recorded as 22.7 L. The “Clearance of vancomycin – CL, Bootstrap analysis Estimate” value in data set [1] (final model parameter, 200 bootstrap runs) is 0.0754 L/h and the “Clearance of vancomycin – CL, Bootstrap analysis Estimate” value (final model parameter, impaired renal function, 200 bootstrap runs) is listed as 0.281 L/h. The “Central volume of distribution – V1, NONMEM Estimate” value in data set [1] (final model) was 7.47 L and the “Central volume of distribution – V1, NONMEM Estimate” value (final model, impaired renal function) is reported as 29.9 L. Besides, the “Central volume of distribution – V1, Bootstrap analysis Estimate” value in data set [1] (final model, 200 bootstrap runs) is 7.55 L and the “Central volume of distribution – V1, Bootstrap analysis Estimate” value (final model, impaired renal function, 200 bootstrap runs) is reported as 30.7 L. Besides, the “interstitial fluid concentration in brain tissue” value in data set [2] (healthy adults) is 0 to 3.45 mg/L. Also, in data set [2] (patients with meningitis), the “interstitial fluid concentration in the brain” value is 6.4 to 11.1 mg/L. In addition, the “central volume of distribution, renal impairment group versus normal group” value (base models, 22.7L vs. 7.12L) is given as 3 times. In data set [3] (after intravenous administration, distributed in extracellular space), the “apparent volume of distribution” value is 0.4 to 1 L/kg. In addition, the clearance entry in data set [3] is listed as “about 2.64 l/h”.
